The test system of test [1] is human colon cancer cell strain HT29. As to the kind of experiment: Cell growth inhibition test (MTT), HT29. It counts as cell-based. The note with it: HT-29, 72 h, HT29, 3 days culture, read-out: concentration exhibiting anti-cell effect (GI50). Put shortly: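 Each cell strain is exposed to serially diluted compound for 3 days (37° C, 5% CO2), added one day after seeding at 5000 (AN3CA, HT29) or 1000 (IGROV1) cells/well. Living cells are quantified by MTT reduction over 4 h, absorbance at 540 nm, giving GI50 at 50% growth rate.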

In test [2] the test system is Akt (threonine 308) phosphorylation in AN3CA tumor. As to the kind of experiment: Akt phosphorylation inhibition assay in xenograft. The note with it: Mus musculus, AN3-CA, oral, 6 hr after dosing. Type of test: in vivo, female nude mouse. How it is done:
A tumor section was prepared from a human endometrial cancer cell strain AN3CA tumor mass formed in a female nude mouse as subcutaneously transplanted tumor and a xenograft model was prepared by subcutaneously transplanting the tumor to a female nude mouse. The test compound at a predetermined concentration was orally administered. After a predetermined time, the anesthetized mouse was exsanguinated to death, and a tumor mass was isolated. The tumor mass was crushed using a lysis buffer containing inhibitors of proteases and dephosphorylating enzymes (Cell Signaling Technology, Inc.) and the supernatant was separated by centrifugation to obtain a tumor extract. The protein content of the tumor extract was measured using DC Protein Assay Kit (Bio-Rad Laboratories, Inc.) and phosphorylation conditions of Akt (threonine 308) and S6 (serine 235 and 236) were analyzed by a usual technique of western blotting using tumor extracts containing the same amount of protein. The primary antibody and the secondary antibody used for detecting each molecule were rabbit anti-phospho-Akt(T308) antibody and HRP-labeled goat anti-rabbit IgG antibody or mouse anti-phospho-S6(S235/236) antibody and HRP-labeled sheep anti-mouse IgG antibody.
The signal intensity detected using an image analyzer Typhoon 9400 (GE Healthcare) was quantified, and the phosphorylation inhibition rate (%) was calculated by the following formula. Phosphorylation inhibitory activity (%) of Akt and S6 after treatment with test compound=100−100×(B/A) A: Signal intensity derived from phosphorylated protein in tumor mass isolated from mouse untreated with test compound B: Signal intensity derived from phosphorylated protein in tumor mass isolated from mouse treated with test compound

In the case of `C[C@@H](O)CC(=O)N1CCN(c2nc3c(N4CCOCC4)nc(-c4cnc(N)nc4)nc3n2CC(F)(F)F)CC1` [Example 70, (2R)-4-{4-[2-(2-Aminopyrimidin-5-yl)-6-morpholin-4-yl-9-(2,2,2-trifluoroethyl)-9H-purin-8-yl]piperazin-1-yl}-4-oxobutan-2-ol], the GI50 in test [1] is at most 5 µM. Moreover, the inhibition (commonly how much of the control response was suppressed) at 10 mg/kg in test [2] was over 60%.

For the compound `Nc1ncc(-c2nc(N3CCOCC3)c3nc(N4CCN(C=O)CC4)n(CC(F)(F)F)c3n2)cn1` [Example 71, 4-[2-(2-Aminopyrimidin-5-yl)-6-morpholin-4-yl-9-(2,2,2-trifluoroethyl)-9H-purin-8-yl]piperazine-1-carboaldehyde], the GI50 in test [1] was at most 5 µM. For the same compound, in test [2], the inhibition at 10 mg/kg was over 60%.

In the case of `CC[C@H]1CN(c2nc3c(N4CCOCC4)nc(-c4cnc(N)nc4)nc3n2CC(F)(F)F)CCN1C(C)=O` [Example 75, 5-{8-[(3S)-4-Acetyl-3-ethylpiperazin-1-yl]-6-morpholin-4-yl-9-(2,2,2-trifluoroethyl)-9H-purin-2-yl}pyrimidin-2-amine], the GI50 in test [1] was at most 5 µM. In test [2], this compound had an inhibition at 10 mg/kg of over 60%.

Consider `CC[C@H]1CN(c2nc3c(N4CCOCC4)nc(-c4cnc(N)nc4)nc3n2CC(F)(F)F)CCN1S(C)(=O)=O` [Example 76, 5-{8-[(3S)-3-Ethyl-4-(methylsulfonyl)piperazin-1-yl]-6-morpholin-4-yl-9-(2,2,2-trifluoroethyl)-9H-purin-2-yl}pyrimidin-2-amine], for which the GI50 in test [1] is at most 5 µM. In test [2], this compound displayed an inhibition at 10 mg/kg of over 60%.

For `CC[C@H]1CN(c2nc3c(N4CCOCC4)nc(-c4cnc(N)nc4)nc3n2CC(F)(F)F)CCN1C(=O)[C@H](C)O` [Example 77, (2S)-1-{(2S)-4-[2-(2-Aminopyrimidin-5-yl)-6-morpholin-4-yl-9-(2,2,2-trifluoroethyl)-9H-purin-8-yl]-2-ethylpiperazin-1-yl}-1-oxopropan-2-ol], the GI50 in test [1] is at most 5 µM. In test [2], this compound displayed an inhibition at 10 mg/kg of over 60%.

Turning to `CC[C@@H]1CN(c2nc3c(N4CCOCC4)nc(-c4cnc(N)nc4)nc3n2CC(F)(F)F)CCN1C(=O)[C@H](C)O` [Example 79], the GI50 in test [1] is at most 5 µM. In test [2], this compound showed an inhibition at 10 mg/kg of over 60%.

As to `CC(C)Cn1c(N2CCN(C(=O)C[C@@H](C)O)CC2)nc2c(N3CCOCC3)nc(-c3cnc(N)nc3)nc21` [Example 81, (2R)-4-{4-[2-(2-Aminopyrimidin-5-yl)-9-isobutyl-6-morpholin-4-yl-9H-purin-8-yl]piperazin-1-yl}-4-oxobutan-2-ol], the GI50 in test [1] is at most 5 µM. Further, the inhibition at 10 mg/kg in test [2] was over 60%.

Regarding `CC(C)Cn1c(N2CCN(C(=O)C[C@H](C)O)CC2)nc2c(N3CCOCC3)nc(-c3cnc(N)nc3)nc21` [Example 82, (2S)-4-{4-[2-(2-Aminopyrimidin-5-yl)-9-isobutyl-6-morpholin-4-yl-9H-purin-8-yl]piperazin-1-yl}-4-oxobutan-2-ol], the GI50 in test [1] was at most 5 µM. The inhibition at 10 mg/kg in test [2] is over 60%.

For `CC(C)Cn1c(N2CCN(C(=O)C[C@@H](C)O)[C@@H](C)C2)nc2c(N3CCOCC3)nc(-c3cnc(N)nc3)nc21` [Example 83, (2R)-4-{(2S)-4-[2-(2-Aminopyrimidin-5-yl)-9-isobutyl-6-morpholin-4-yl-9H-purin-8-yl]-2-methylpiperazin-1-yl}-4-oxobutan-2-ol], the GI50 in test [1] is at most 5 µM. In test [2], the inhibition at 10 mg/kg was over 60%.

On to `CC(C)Cn1c(N2CCN(C(=O)C[C@@H](C)O)[C@H](C)C2)nc2c(N3CCOCC3)nc(-c3cnc(N)nc3)nc21` [Example 84, (2R)-4-{(2R)-4-[2-(2-Aminopyrimidin-5-yl)-9-isobutyl-6-morpholin-4-yl-9H-purin-8-yl]-2-methylpiperazin-1-yl}-4-oxobutan-2-ol], for which the GI50 in test [1] is at most 5 µM. The inhibition at 10 mg/kg in test [2] is over 60%.

Regarding `CC(C)Cn1c(N2CCN(C(=O)C[C@H](C)O)[C@@H](C)C2)nc2c(N3CCOCC3)nc(-c3cnc(N)nc3)nc21` [Example 85, (2S)-4-{(2S)-4-[2-(2-Aminopyrimidin-5-yl)-9-isobutyl-6-morpholin-4-yl-9H-purin-8-yl]-2-methylpiperazin-1-yl}-4-oxobutan-2-ol], the GI50 in test [1] was at most 5 µM. This compound displayed an inhibition at 10 mg/kg in test [2] of over 60%.

On to `CC(C)Cn1c(N2CCN(C(=O)C[C@H](C)O)[C@H](C)C2)nc2c(N3CCOCC3)nc(-c3cnc(N)nc3)nc21` [Example 86, (2S)-4-{(2R)-4-[2-(2-Aminopyrimidin-5-yl)-9-isobutyl-6-morpholin-4-yl-9H-purin-8-yl]-2-methylpiperazin-1-yl}-4-oxobutan-2-ol], for which the GI50 in test [1] was at most 5 µM. In test [2], this compound came in with an inhibition at 10 mg/kg of over 60%.

`CNc1ncc(-c2nc(N3CCOCC3)c3nc(N4CCN(CC(=O)N(C)C)[C@H](C)C4)n(CC(F)(F)F)c3n2)cn1` [Example 87, N,N-Dimethyl-2-[(2R)-2-methyl-4-{2-[2-(methylamino)pyrimidin-5-yl]-6-morpholin-4-yl-9-(2,2,2-trifluoroethyl)-9H-purin-8-yl}piperazin-1-yl]acetamide]: in test [1], the GI50 is at most 5 µM. Further, the inhibition at 10 mg/kg in test [2] is over 60%.

For the compound `C[C@H](O)C(=O)N1CCN(c2nc3c(N4CCOCC4)nc(-c4cnc(N)nc4)nc3n2CC2CC2)CC1` [Example 88, (2S)-1-{4-[2-(2-Aminopyrimidin-5-yl)-9-(cyclopropylmethyl)-6-morpholin-4-yl-9H-purin-8-yl]piperazin-1-yl}-1-oxopropan-2-ol], the GI50 in test [1] is at most 5 µM. The same compound returned an inhibition at 10 mg/kg in test [2] of over 60%.

As for `CC(C)Cn1c(N2CCN(C(=O)CO)CC2)nc2c(N3CCOCC3)nc(-c3cnc(N)nc3)nc21` [Example 89, 2-{4-[2-(2-Aminopyrimidin-5-yl)-9-isobutyl-6-morpholin-4-yl-9H-purin-8-yl]piperazin-1-yl}-2-oxoethanol], in test [1], the GI50 was at most 5 µM. The same compound came in with an inhibition at 10 mg/kg in test [2] of over 60%.

On to `CC(C)Cn1c(N2CCN(C=O)CC2)nc2c(N3CCOCC3)nc(-c3cnc(N)nc3)nc21` [Example 90, 4-[2-(2-Aminopyrimidin-5-yl)-9-isobutyl-6-morpholin-4-yl-9H-purin-8-yl]piperazine-1-carboaldehyde], for which, in test [1], the GI50 was at most 5 µM. The compound further came in with an inhibition at 10 mg/kg in test [2] of over 60%.

For the compound `C[C@H](O)C(=O)N1CCN(c2nc3c(N4CCOCC4)nc(-c4cnc(N)nc4)nc3n2CC2CC2)C[C@@H]1C` [Example 92, (2S)-1-{(2S)-4-[2-(2-Aminopyrimidin-5-yl)-9-(cyclopropylmethyl)-6-morpholin-4-yl-9H-purin-8-yl]-2-methylpiperazin-1-yl}-1-oxopropan-2-ol], the GI50 in test [1] is at most 5 µM. Besides, the inhibition at 10 mg/kg in test [2] is over 60%.

In the case of `CC(C)Cn1c(N2CCN(C(=O)[C@@H](C)O)CC2)nc2c(N3CCOCC3)nc(-c3cnc(N)nc3)nc21` [Example 93], in test [1], the GI50 is at most 5 µM. The compound also registered an inhibition at 10 mg/kg in test [2] of over 60%.

For the compound `C[C@H](O)C(=O)N1CCN(c2nc3c(N4CCOCC4)nc(-c4cnc(N)nc4)nc3n2CC2CC2)C[C@H]1C` [Example 95, (2S)-1-{(2R)-4-[2-(2-Aminopyrimidin-5-yl)-9-(cyclopropylmethyl)-6-morpholin-4-yl-9H-purin-8-yl]-2-methylpiperazin-1-yl}-1-oxopropan-2-ol], the GI50 in test [1] was at most 5 µM. This compound also returned an inhibition at 10 mg/kg in test [2] of over 60%.

On to `CC(=O)N1CCN(c2nc3c(N4CCOCC4)nc(-c4cnc(N)nc4)nc3n2CC2CC2)C[C@@H]1C` [Example 96, 5-{8-[(3S)-4-Acetyl-3-methylpiperazin-1-yl]-9-(cyclopropylmethyl)-6-morpholin-4-yl-9H-purin-2-yl}pyrimidin-2-amine], for which the GI50 in test [1] was at most 5 µM. In test [2], the inhibition at 10 mg/kg was over 60%.

`CC(=O)N1CCN(c2nc3c(N4CCOCC4)nc(-c4cnc(N)nc4)nc3n2CC2CC2)C[C@H]1C` [Example 97, 5-{8-[(3R)-4-Acetyl-3-methylpiperazin-1-yl]-9-(cyclopropylmethyl)-6-morpholin-4-yl-9H-purin-2-yl}pyrimidin-2-amine]: the GI50 in test [1] is at most 5 µM. In test [2], the inhibition at 10 mg/kg lay in the range of 30 to 60%.

On to `CC(=O)N1[C@H](C)CN(c2nc3c(N4CCOCC4)nc(-c4cnc(N)nc4)nc3n2CC2CC2)C[C@@H]1C` [Example 98, 5-{8-[4-Acetyl-cis-3,5-dimethylpiperazin-1-yl]-9-(cyclopropylmethyl)-6-morpholin-4-yl-9H-purin-2-yl}pyrimidin-2-amine], for which, in test [1], the GI50 is at most 5 µM. The compound further had an inhibition at 10 mg/kg in test [2] of 30 to 60%.

Take `CC(=O)N1CCN(c2nc3c(N4CCOCC4)nc(-c4cnc(N)nc4)nc3n2CC(C)C)C[C@H]1C` [Example 99, 5-{8-[(3R)-4-Acetyl-3-methylpiperazin-1-yl]-9-isobutyl-6-morpholin-4-yl-9H-purin-2-yl}pyrimidin-2-amine]: the GI50 in test [1] was at most 5 µM. The inhibition at 10 mg/kg in test [2] fell in the range of 30 to 60%.

The values above are taken from patent US8309546B2, “Morpholinopurine derivatives” (Daiichi Sankyo Company, Limited, priority 2008, dated 2012).
